According to paper PMC5065787 (Bioorganic & medicinal chemistry, 2016):
One block for each molecule: values may come before it.

Tests used:
[1] = cited from earlier work
rat LOX ortholog = details: cited from earlier work
h15-LOX-1 = details: cited from earlier work
dog LOX ortholog = details: cited from earlier work
[2] = cited from earlier work; remark: listed apart in the source
h15-LOX-1 F414I = molecular target: T1, h15-LOX-1 F414I (Homo sapiens, UniProt P16050, F414I); assay: Steady-state substrate kinetics, F414I; assay type: biochemical; details: error in parentheses
T1 sequence (P16050 1-662 F414I): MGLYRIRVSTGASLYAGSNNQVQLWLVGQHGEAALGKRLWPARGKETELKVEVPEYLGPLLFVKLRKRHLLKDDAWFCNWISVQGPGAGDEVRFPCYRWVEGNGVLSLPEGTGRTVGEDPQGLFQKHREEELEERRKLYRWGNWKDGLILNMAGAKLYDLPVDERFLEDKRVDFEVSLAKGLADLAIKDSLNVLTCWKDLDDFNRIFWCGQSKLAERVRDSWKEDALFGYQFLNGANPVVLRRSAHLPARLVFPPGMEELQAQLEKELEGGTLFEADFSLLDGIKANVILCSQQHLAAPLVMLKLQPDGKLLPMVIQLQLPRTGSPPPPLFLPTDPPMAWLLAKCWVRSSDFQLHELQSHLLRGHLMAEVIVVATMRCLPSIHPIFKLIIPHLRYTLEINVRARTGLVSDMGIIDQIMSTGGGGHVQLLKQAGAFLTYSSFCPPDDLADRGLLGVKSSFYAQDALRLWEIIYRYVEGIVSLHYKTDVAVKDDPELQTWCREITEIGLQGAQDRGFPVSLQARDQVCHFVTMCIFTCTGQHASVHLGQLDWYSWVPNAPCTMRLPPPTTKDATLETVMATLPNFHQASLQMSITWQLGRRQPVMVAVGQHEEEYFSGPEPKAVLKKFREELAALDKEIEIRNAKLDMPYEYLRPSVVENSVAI

WT h15-LOX-1 = molecular target: T2, WT h15-LOX-1 (Homo sapiens, UniProt P16050); assay: Steady-state substrate kinetics, WT; assay type: biochemical; details: error in parentheses
T2 sequence (P16050 1-662): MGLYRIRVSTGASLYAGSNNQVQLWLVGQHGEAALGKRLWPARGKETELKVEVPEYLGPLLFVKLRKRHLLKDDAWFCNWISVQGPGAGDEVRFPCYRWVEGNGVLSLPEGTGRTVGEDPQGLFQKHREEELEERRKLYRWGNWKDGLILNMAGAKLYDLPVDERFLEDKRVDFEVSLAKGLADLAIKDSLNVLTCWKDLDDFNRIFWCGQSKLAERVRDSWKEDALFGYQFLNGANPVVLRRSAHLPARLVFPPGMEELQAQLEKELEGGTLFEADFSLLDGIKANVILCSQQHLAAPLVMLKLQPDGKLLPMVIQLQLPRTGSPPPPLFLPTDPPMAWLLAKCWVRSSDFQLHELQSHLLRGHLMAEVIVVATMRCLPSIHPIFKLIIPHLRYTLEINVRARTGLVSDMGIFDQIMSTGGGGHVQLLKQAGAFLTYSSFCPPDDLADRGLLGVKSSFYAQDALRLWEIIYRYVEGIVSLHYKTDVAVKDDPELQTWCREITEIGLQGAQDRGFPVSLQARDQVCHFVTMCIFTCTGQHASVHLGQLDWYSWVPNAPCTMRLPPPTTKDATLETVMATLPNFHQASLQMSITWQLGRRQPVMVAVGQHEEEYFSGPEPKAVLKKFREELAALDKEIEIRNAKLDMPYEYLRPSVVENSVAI

[3] = possibly due to cellular lability of the ester moiety; cited from earlier work
[4] = substrate: CCCCC/C=C\C/C=C\C/C=C\C/C=C\CCCC(=O)O; assay: Steady-state substrate kinetics, Q547L; assay type: biochemical, human; details: other: Q547L; error in parentheses; unit inferred; pH 7.5
[5] = substrate: CCCCC/C=C\C/C=C\C/C=C\C/C=C\CCCC(=O)O; assay: Steady-state substrate kinetics, F414W; assay type: biochemical, human; details: other: F414W; error in parentheses; unit inferred; pH 7.5
[6] = substrate: CCCCC/C=C\C/C=C\C/C=C\C/C=C\CCCC(=O)O; assay: Steady-state substrate kinetics, E356Q; assay type: biochemical, human; details: other: E356Q; error in parentheses; unit inferred; pH 7.5
[7] = substrate: CCCCC/C=C\C/C=C\C/C=C\C/C=C\CCCC(=O)O; assay: Steady-state substrate kinetics, L407A; assay type: biochemical, human; details: other: L407A; error in parentheses; unit inferred; pH 7.5
[8] = substrate: CCCCC/C=C\C/C=C\C/C=C\C/C=C\CCCC(=O)O; assay: Steady-state substrate kinetics, F414I; assay type: biochemical, human; details: other: F414I; error in parentheses; unit inferred; pH 7.5

Molecule: O=C(Nc1ccc(F)cc1Cl)c1c[nH]nn1 [BLX-2477, N-(2-chloro-4-fluorophenyl)triazole-4-carboxamide]
adverse off-target effects in mini-pigs [1]: adverse off-target effects | potency against rat LOX ortholog (rat LOX ortholog): not potent | potency against h15-LOX-1 (h15-LOX-1): 99 nM | potency against dog LOX ortholog (dog LOX ortholog): not potent

Molecule: CNc1oc(-c2cccc3ccccc23)nc1C#N [ML351, 5-(methylamino)-2-(naphthalene-1-yl)oxazole-4-carbonitrile]
in vivo activity in mice [2]: exhibits in vivo activity

Molecule: CCCCCc1ccc(S(=O)(=O)NCCc2c(-c3ccc(C(F)(F)F)cc3)[nH]c3ccccc23)cc1 [tryptamine sulfonamide]
potency against h15-LOX-1 (h15-LOX-1): 21 nM

kcat (h15-LOX-1 F414I; no unit in table (sec^−1)): 1.6 (0.03) | Km (h15-LOX-1 F414I; unit inferred): 6.1 µM | kcat (WT h15-LOX-1; no unit in table (sec^−1)): 11 (0.4) | Km (WT h15-LOX-1; substrate 1-20 µM, unit inferred): 7.7 µM
Molecule: CCCCC/C=C\C/C=C\CCCCCCCC(=O)O [LA, linoleic acid]

Molecule: O=C(OCC#CCSc1nnc(-c2cccc3ccccc23)o1)c1cccs1 [ML094, 4-(5-(Naphthalen-1-yl)-1,3,4-oxadiazol-2-ylthio)but-2-ynylthiophene-2-carboxylate]
activity in vivo [3]: no activity

B1: h15-LOX-1 Q547L (Homo sapiens; Q547L) (protein)
chain: MGLYRIRVSTGASLYAGSNNQVQLWLVGQHGEAALGKRLWPARGKETELKVEVPEYLGPLLFVKLRKRHLLKDDAWFCNWISVQGPGAGDEVRFPCYRWVEGNGVLSLPEGTGRTVGEDPQGLFQKHREEELEERRKLYRWGNWKDGLILNMAGAKLYDLPVDERFLEDKRVDFEVSLAKGLADLAIKDSLNVLTCWKDLDDFNRIFWCGQSKLAERVRDSWKEDALFGYQFLNGANPVVLRRSAHLPARLVFPPGMEELQAQLEKELEGGTLFEADFSLLDGIKANVILCSQQHLAAPLVMLKLQPDGKLLPMVIQLQLPRTGSPPPPLFLPTDPPMAWLLAKCWVRSSDFQLHELQSHLLRGHLMAEVIVVATMRCLPSIHPIFKLIIPHLRYTLEINVRARTGLVSDMGIFDQIMSTGGGGHVQLLKQAGAFLTYSSFCPPDDLADRGLLGVKSSFYAQDALRLWEIIYRYVEGIVSLHYKTDVAVKDDPELQTWCREITEIGLQGAQDRGFPVSLQARDQVCHFVTMCIFTCTGQHASVHLGLLDWYSWVPNAPCTMRLPPPTTKDATLETVMATLPNFHQASLQMSITWQLGRRQPVMVAVGQHEEEYFSGPEPKAVLKKFREELAALDKEIEIRNAKLDMPYEYLRPSVVENSVAI
Km [4]: 11 µM

B2: h15-LOX-1 F414W (Homo sapiens; F414W) (protein)
chain: MGLYRIRVSTGASLYAGSNNQVQLWLVGQHGEAALGKRLWPARGKETELKVEVPEYLGPLLFVKLRKRHLLKDDAWFCNWISVQGPGAGDEVRFPCYRWVEGNGVLSLPEGTGRTVGEDPQGLFQKHREEELEERRKLYRWGNWKDGLILNMAGAKLYDLPVDERFLEDKRVDFEVSLAKGLADLAIKDSLNVLTCWKDLDDFNRIFWCGQSKLAERVRDSWKEDALFGYQFLNGANPVVLRRSAHLPARLVFPPGMEELQAQLEKELEGGTLFEADFSLLDGIKANVILCSQQHLAAPLVMLKLQPDGKLLPMVIQLQLPRTGSPPPPLFLPTDPPMAWLLAKCWVRSSDFQLHELQSHLLRGHLMAEVIVVATMRCLPSIHPIFKLIIPHLRYTLEINVRARTGLVSDMGIWDQIMSTGGGGHVQLLKQAGAFLTYSSFCPPDDLADRGLLGVKSSFYAQDALRLWEIIYRYVEGIVSLHYKTDVAVKDDPELQTWCREITEIGLQGAQDRGFPVSLQARDQVCHFVTMCIFTCTGQHASVHLGQLDWYSWVPNAPCTMRLPPPTTKDATLETVMATLPNFHQASLQMSITWQLGRRQPVMVAVGQHEEEYFSGPEPKAVLKKFREELAALDKEIEIRNAKLDMPYEYLRPSVVENSVAI
Km [5]: 6.5 µM

B3: h15-LOX-1 E356Q (Homo sapiens; E356Q) (protein)
chain: MGLYRIRVSTGASLYAGSNNQVQLWLVGQHGEAALGKRLWPARGKETELKVEVPEYLGPLLFVKLRKRHLLKDDAWFCNWISVQGPGAGDEVRFPCYRWVEGNGVLSLPEGTGRTVGEDPQGLFQKHREEELEERRKLYRWGNWKDGLILNMAGAKLYDLPVDERFLEDKRVDFEVSLAKGLADLAIKDSLNVLTCWKDLDDFNRIFWCGQSKLAERVRDSWKEDALFGYQFLNGANPVVLRRSAHLPARLVFPPGMEELQAQLEKELEGGTLFEADFSLLDGIKANVILCSQQHLAAPLVMLKLQPDGKLLPMVIQLQLPRTGSPPPPLFLPTDPPMAWLLAKCWVRSSDFQLHQLQSHLLRGHLMAEVIVVATMRCLPSIHPIFKLIIPHLRYTLEINVRARTGLVSDMGIFDQIMSTGGGGHVQLLKQAGAFLTYSSFCPPDDLADRGLLGVKSSFYAQDALRLWEIIYRYVEGIVSLHYKTDVAVKDDPELQTWCREITEIGLQGAQDRGFPVSLQARDQVCHFVTMCIFTCTGQHASVHLGQLDWYSWVPNAPCTMRLPPPTTKDATLETVMATLPNFHQASLQMSITWQLGRRQPVMVAVGQHEEEYFSGPEPKAVLKKFREELAALDKEIEIRNAKLDMPYEYLRPSVVENSVAI
Km [6]: 4.1 µM

B4: h15-LOX-1 L407A (Homo sapiens; L407A) (protein)
chain: MGLYRIRVSTGASLYAGSNNQVQLWLVGQHGEAALGKRLWPARGKETELKVEVPEYLGPLLFVKLRKRHLLKDDAWFCNWISVQGPGAGDEVRFPCYRWVEGNGVLSLPEGTGRTVGEDPQGLFQKHREEELEERRKLYRWGNWKDGLILNMAGAKLYDLPVDERFLEDKRVDFEVSLAKGLADLAIKDSLNVLTCWKDLDDFNRIFWCGQSKLAERVRDSWKEDALFGYQFLNGANPVVLRRSAHLPARLVFPPGMEELQAQLEKELEGGTLFEADFSLLDGIKANVILCSQQHLAAPLVMLKLQPDGKLLPMVIQLQLPRTGSPPPPLFLPTDPPMAWLLAKCWVRSSDFQLHELQSHLLRGHLMAEVIVVATMRCLPSIHPIFKLIIPHLRYTLEINVRARTGAVSDMGIFDQIMSTGGGGHVQLLKQAGAFLTYSSFCPPDDLADRGLLGVKSSFYAQDALRLWEIIYRYVEGIVSLHYKTDVAVKDDPELQTWCREITEIGLQGAQDRGFPVSLQARDQVCHFVTMCIFTCTGQHASVHLGQLDWYSWVPNAPCTMRLPPPTTKDATLETVMATLPNFHQASLQMSITWQLGRRQPVMVAVGQHEEEYFSGPEPKAVLKKFREELAALDKEIEIRNAKLDMPYEYLRPSVVENSVAI
Km [7]: 5.5 µM

B5: h15-LOX-1 F414I (Homo sapiens; F414I) (protein)
chain: MGLYRIRVSTGASLYAGSNNQVQLWLVGQHGEAALGKRLWPARGKETELKVEVPEYLGPLLFVKLRKRHLLKDDAWFCNWISVQGPGAGDEVRFPCYRWVEGNGVLSLPEGTGRTVGEDPQGLFQKHREEELEERRKLYRWGNWKDGLILNMAGAKLYDLPVDERFLEDKRVDFEVSLAKGLADLAIKDSLNVLTCWKDLDDFNRIFWCGQSKLAERVRDSWKEDALFGYQFLNGANPVVLRRSAHLPARLVFPPGMEELQAQLEKELEGGTLFEADFSLLDGIKANVILCSQQHLAAPLVMLKLQPDGKLLPMVIQLQLPRTGSPPPPLFLPTDPPMAWLLAKCWVRSSDFQLHELQSHLLRGHLMAEVIVVATMRCLPSIHPIFKLIIPHLRYTLEINVRARTGLVSDMGIIDQIMSTGGGGHVQLLKQAGAFLTYSSFCPPDDLADRGLLGVKSSFYAQDALRLWEIIYRYVEGIVSLHYKTDVAVKDDPELQTWCREITEIGLQGAQDRGFPVSLQARDQVCHFVTMCIFTCTGQHASVHLGQLDWYSWVPNAPCTMRLPPPTTKDATLETVMATLPNFHQASLQMSITWQLGRRQPVMVAVGQHEEEYFSGPEPKAVLKKFREELAALDKEIEIRNAKLDMPYEYLRPSVVENSVAI
Km [8]: 11 µM
